“And” between values parts separate entries of the source, which are not always exact repeats. Equal values may be shown once.
Legend:
[1] = target: T1, Opiate μ(OP3, MOP) (Homo sapiens, UniProt P35372); assay: Panlab assay, Opiate μ(OP3, MOP); assay type: binding
T1 construct: Eurofins Panlabs
Description: (§1) Compounds A, B, C, and D were tested in Panlab assays to evaluate potential off-target activity using standard assay kits. Methods employed in these studies have been adapted from the scientific literature to maximize reliability and reproducibility.
(§2) IC50 values were determined by a non-linear, least squares regression analysis using MathIQ™ (ID Business Solutions Ltd., UK). […] Where presented, the Hill coefficient (nH), defining the slope of the competitive binding curve, was calculated using MathIQ™.

[2] = target: T2, Tachykinin NK1 (Homo sapiens, UniProt P25103); assay: Panlab assay, Tachykinin NK1; assay type: binding
T2 construct: Eurofins Panlabs
T2 sequence (P25103 whole entry): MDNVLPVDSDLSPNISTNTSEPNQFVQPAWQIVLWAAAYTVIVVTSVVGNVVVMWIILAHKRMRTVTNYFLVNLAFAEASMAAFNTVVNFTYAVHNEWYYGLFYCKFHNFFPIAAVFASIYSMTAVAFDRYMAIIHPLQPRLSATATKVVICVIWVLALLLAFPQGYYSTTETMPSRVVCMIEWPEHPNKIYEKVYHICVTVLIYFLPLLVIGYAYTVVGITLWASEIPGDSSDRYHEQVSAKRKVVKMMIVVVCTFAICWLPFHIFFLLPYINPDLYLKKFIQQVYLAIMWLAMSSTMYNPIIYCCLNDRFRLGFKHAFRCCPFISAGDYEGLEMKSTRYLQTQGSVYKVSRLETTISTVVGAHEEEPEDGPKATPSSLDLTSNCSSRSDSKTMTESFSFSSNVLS
Description: as §1, with “reproducibility. Reference standards were run as an integral part of each assay to ensure the validity of the results obtained.” for “reproducibility.”
IC50 values were determined by a non-linear, least squares regression analysis using MathIQ™ (ID Business Solutions Ltd., UK). Where inhibition constants (Ki) are presented, the Ki values were calculated using the equation of Cheng and Prusoff (Cheng, Y., Prusoff, W. H., Biochem. Pharmacol. 22:3099-3108, 1973) using the observed IC50 of the tested compound, the concentration of radioligand employed in the assay, and the historical values for the KD of the ligand (obtained experimentally at Eurofins Panlabs, Inc.). Where presented, the Hill coefficient (nH), defining the slope of the competitive binding curve, was calculated using MathIQ™.

[3] = target: T3, MUSK (Homo sapiens, UniProt O15146); assay: 33PanQinase radiometric kinase assay, MUSK; assay type: biochemical
T3 construct: purchased ProQinase; host or cells: Sf9 insect cells or E. coli
T3 sequence (O15146 24-869): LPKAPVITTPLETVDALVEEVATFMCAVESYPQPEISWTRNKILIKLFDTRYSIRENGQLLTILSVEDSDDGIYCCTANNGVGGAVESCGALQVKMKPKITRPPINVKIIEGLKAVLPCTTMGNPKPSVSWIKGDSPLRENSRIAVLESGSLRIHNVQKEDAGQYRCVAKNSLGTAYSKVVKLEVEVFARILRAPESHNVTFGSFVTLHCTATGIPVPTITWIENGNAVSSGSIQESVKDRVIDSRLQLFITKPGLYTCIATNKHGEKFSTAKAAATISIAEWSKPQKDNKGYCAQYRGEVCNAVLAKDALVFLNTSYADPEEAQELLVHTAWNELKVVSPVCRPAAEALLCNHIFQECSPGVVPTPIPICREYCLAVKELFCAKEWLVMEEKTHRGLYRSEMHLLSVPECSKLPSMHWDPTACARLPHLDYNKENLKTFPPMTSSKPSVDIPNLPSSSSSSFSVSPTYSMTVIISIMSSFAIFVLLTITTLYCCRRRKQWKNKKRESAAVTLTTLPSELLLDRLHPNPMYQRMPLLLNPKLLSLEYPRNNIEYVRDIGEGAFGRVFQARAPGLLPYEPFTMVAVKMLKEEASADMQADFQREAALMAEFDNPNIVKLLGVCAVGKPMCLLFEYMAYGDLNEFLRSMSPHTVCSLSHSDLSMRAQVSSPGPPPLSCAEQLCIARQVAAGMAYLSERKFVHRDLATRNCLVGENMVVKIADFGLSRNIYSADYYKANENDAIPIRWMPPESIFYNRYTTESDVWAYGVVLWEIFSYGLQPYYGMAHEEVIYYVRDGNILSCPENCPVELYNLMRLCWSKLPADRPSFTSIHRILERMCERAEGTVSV
Description: A radiometric protein kinase assay (33PanQinase Activity Assay) was used for measuring the kinase activity of the 320 protein kinases. All kinase assays were performed in 96-well FlashPlates™ from Perkin Elmer (Boston, Mass., USA) in a 50 μl reaction volume. The reaction cocktail was pipetted in 4 steps in the following order: • 1. 10 μl of non-radioactive ATP solution (in H2O) • 2. 25 μl of assay buffer/[γ-33P]-ATP mixture • 3. 5 μl of test sample in 10% DMSO • 4. 10 μl of enzyme/substrate mixture
All PKC assays (except the PKC-mu and the PKC-nu assay) additionally contained 1 mM CaCl2, 4 mM EDTA, 5 μg/ml phosphatidylserine and 1 μg/ml 1,2-dioleyl-glycerol.
The CAMKID, CAMK2A, CAMK2B, CAMK2D, CAMK4, CAMKK1, CAMKK2, DAPK2, EEF2K, MYLK, MYLK2 and MYLK3 assays additionally contained 1 μg/ml Calmodulin and 0.5 mM CaCl2). The PRKG1 and PRKG2 assays additionally contained 1 μM cGMP. The DNA-PK assay additionally contained 2.5 μg/ml DNA. The protein kinase reaction cocktails were incubated at 30° C. for 60 minutes. The reaction was stopped with 50 μl of 2% (v/v) H3PO4, plates were aspirated and washed two times with 200 μl 0.9% (w/v) NaCl. Incorporation of 33Pi (counting of “cpm”) was determined with a microplate scintillation counter (Microbeta, Wallac). All protein kinase assays were performed with a BeckmanCoulter Biomek 2000/SL robotic system.
All protein kinases provided by ProQinase were expressed in Sf9 insect cells or in E. coli as recombinant GST-fusion proteins or His-tagged proteins, either as full-length or enzymatically active fragments. All kinases were produced from human cDNAs and purified by either GSHaffinity chromatography or immobilized metal. Affinity tags were removed from a number of kinases during purification. […]
For each kinase, the median value of the cpm of three wells was defined as “low control” (n=3). This value reflects unspecific binding of radioactivity to the plate in the absence of a protein kinase but in the presence of the substrate. […] The residual activity (in %) for each compounds well was calculated by using the following formula: […]

[4] = target: T4, Phosphodiesterase PDE3 (Homo sapiens, UniProt Q14432); assay: Panlab assay, Phosphodiesterase PDE3; assay type: biochemical; settings: read-out: IC50, inhibition of Phosphodiesterase PDE3 activity
T4 construct: Eurofins Panlabs
T4 sequence (Q14432 whole entry): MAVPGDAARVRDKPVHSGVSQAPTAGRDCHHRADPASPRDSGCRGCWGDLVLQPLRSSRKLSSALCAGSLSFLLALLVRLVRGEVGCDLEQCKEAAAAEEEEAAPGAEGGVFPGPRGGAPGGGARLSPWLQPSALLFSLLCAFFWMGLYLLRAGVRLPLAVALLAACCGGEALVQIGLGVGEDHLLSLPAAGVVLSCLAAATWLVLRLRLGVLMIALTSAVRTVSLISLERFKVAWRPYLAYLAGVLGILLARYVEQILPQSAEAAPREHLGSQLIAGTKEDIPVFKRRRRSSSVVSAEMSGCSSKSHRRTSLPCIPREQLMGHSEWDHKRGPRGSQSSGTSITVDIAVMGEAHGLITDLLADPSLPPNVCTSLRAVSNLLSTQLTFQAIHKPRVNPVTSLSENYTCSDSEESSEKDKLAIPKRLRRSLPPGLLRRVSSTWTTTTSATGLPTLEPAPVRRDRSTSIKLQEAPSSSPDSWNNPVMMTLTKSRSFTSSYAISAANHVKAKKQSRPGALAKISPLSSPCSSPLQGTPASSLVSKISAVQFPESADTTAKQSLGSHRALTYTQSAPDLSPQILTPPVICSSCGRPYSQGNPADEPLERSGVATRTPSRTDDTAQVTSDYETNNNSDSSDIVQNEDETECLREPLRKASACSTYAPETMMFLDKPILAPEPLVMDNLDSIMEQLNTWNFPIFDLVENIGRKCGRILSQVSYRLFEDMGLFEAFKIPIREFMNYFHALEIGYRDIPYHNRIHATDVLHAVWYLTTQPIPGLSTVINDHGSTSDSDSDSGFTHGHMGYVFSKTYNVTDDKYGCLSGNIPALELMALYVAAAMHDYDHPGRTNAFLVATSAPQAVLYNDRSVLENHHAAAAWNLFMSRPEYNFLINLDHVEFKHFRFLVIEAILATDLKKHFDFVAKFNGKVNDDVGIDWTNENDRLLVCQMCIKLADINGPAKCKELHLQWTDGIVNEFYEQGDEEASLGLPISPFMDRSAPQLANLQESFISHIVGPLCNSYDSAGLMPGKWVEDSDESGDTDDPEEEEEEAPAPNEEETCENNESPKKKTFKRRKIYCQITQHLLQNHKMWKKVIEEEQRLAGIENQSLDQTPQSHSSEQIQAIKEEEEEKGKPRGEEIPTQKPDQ
Description: as §1, §2

T1 sequence (P35372 whole entry): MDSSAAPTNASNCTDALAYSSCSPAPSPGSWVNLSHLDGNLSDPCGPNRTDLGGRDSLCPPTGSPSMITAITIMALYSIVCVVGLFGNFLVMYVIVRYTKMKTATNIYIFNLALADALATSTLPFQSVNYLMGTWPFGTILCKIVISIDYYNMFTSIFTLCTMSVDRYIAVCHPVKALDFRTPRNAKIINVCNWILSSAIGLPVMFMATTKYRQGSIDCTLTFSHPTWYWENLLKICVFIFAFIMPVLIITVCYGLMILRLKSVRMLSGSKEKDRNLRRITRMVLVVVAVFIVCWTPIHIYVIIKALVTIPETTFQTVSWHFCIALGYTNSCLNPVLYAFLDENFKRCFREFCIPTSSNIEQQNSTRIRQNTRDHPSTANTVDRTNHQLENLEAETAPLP

In the case of `C[C@]12CC=C3C=C4CC[C@@H](O)C[C@]45CC[C@]3(O5)[C@@H]1CC[C@@H]2c1ccc2ccncc2c1` [Compound A, (3S,3aR,9R,10aR,12aS,12bR)-3-(isoquinolin-7-yl)-3a-methyl-1,2,3,3a,4,7,8,9,10,11,12,12b-dodecahydro-10a,12a-epoxybenzo[4,5]cyclohepta[1,2-e]inden-9-ol], the IC50 [1] is reported as 5.73 µM, the “nH (Hill coefficient), Opiate μ(OP3, MOP)” value [1] is reported as 0.90 and the Ki ([1]; Cheng and Prusoff) is reported as 2.33 µM. For the same compound, the IC50 [2] was 5.94 µM, the “nH (Hill coefficient), Tachykinin NK1” value [2] was 1.01 and the Ki ([2]; Cheng and Prusoff) was 4.3 µM. For the same compound, the inhibition at 1 µM ([3]; 1 μM, 2 replicates, read-out: average percent inhibition of MUSK) was greater than 50%, the “percent inhibition of MUSK, replicates” value ([3]; 1 μM, single replicates) was 36% and 111% and the “inhibition of MUSK upon retesting” value ([3]; up to 10 μM) was “not inhibited”. It also gave an IC50 [4] of 3.26 µM.

Reference: US20180298024A1, “CORTISTATIN ANALOGS AND USES THEREOF” (President and Fellows of Harvard College, priority 2015, published 2018)
